From patent publication EP0783319B1, “MURAMYL PEPTIDE COMPOSITIONS FOR INHIBITING HIV REPLICATION” (VACSYN S.A., priority 1994, dated 1996)

Experiments:
macrophages = test: Macrophage proliferation in cultured donor monocytes (3H-thymidine incorporation); format: cell-based, humains; settings: for inhibition de la prolifération des macrophages stimulées par la combinaison IL-3/GM-CSF / inhibition de la prolifération des macrophages stimulées par l'IL-3: 1 µg/ml, compound added one day before 3H-thymidine, 5-day culture; for inhibition de la prolifération des macrophages stimulées par la combinaison IL-3/GM-CSF: rh IL-3 + rh GM-CSF stimulated; for inhibition de la prolifération des macrophages stimulées par l'IL-3: rh IL-3 stimulated; for inhibition de la prolifération spontanée: no stimulation
Description: Pour cela, des monocytes prélevés chez un donneur sont mis en culture pendant 5 jours soit a) sans stimulation (afin d'évaluer leur niveau de prolifération spontanée) soit b) en présence d'interleukine 3 recombinante humaine (rh IL-3) soit c) en présence et de rh IL-3 et de rh GM-CSF "granulocyte-macrophage colony stimulating factor" recombinant humain. […] Les composés de l'invention sont ajoutés au milieu de culture un jour avant l'addition de thymidine tritiée (^3H-thymidine). Les cellules en voie de division incorporent cette thymidine. Les cellules (qui se sont différenciées en macrophages pendant la durée de la culture) sont recueillies et lavées, et on évalue le niveau de prolifération en mesurant dans un compteur beta, la quantité de ^3H incorporée suivant des méthodes classiques telles que décrites dans Blood, Vol. 76, pages 1490-1493, 1990.

VIH (HTLV III Ba-L) = test: HIV replication in primary human monocyte cultures (viral protein P24 in supernatants, day 7); format: cell-based; settings: P24 at day 7
Description: L'exemple 2 démontre l'effet du Murabutide et du Muramétide sur le niveau de réplication du VIH dans des cultures primaires de monocytes humains prélevés sur des volontaires sains. Des cultures monocytaires ont été infectées au jour 0 par une source VIH (HTLV III Ba-L) qui présente un tropisme pour les monocytes. Certaines cultures furent traitées par différentes concentrations des composés soit 1 jour avant, soit le même jour, soit 1 jour après l'inoculation par le VIH. La réplication du virus a été évaluée au jour 7 par la mesure de la quantité de protéine virale P24 dans les surnageants comme décrite dans Blood, Vol.76, page 1490-1493, 1990.

[1] = set-up: species or system homme; settings: in vivo
Description: Des composés préférés pour l'utilisation selon l'invention sont le Murabutide (Nac-Mur-L-Ala-DGln OnC4H9) et le Muramétide (Nac-Mur-L-Ala-DGln OMe).

HIV = settings: in vitro, 1000 µg/ml; cited from earlier work
macrophages de cobayes = settings: guinea pig macrophages; cited from earlier work

CCCCOC(=O)[C@@H](CCC(N)=O)NC(=O)[C@H](C)NC(=O)[C@@H](C)O[C@H]1[C@H](O)[C@@H](CO)OC(O)[C@@H]1NC(C)=O (stereo partly drawn) [Murabutide, Nac-Mur-L-Ala-DGln OnC4H9]
inhibition de la prolifération des macrophages stimulées par la combinaison IL-3/GM-CSF (macrophages): inhiber la prolifération des macrophages
inhibition de la prolifération des macrophages stimulées par l'IL-3 (macrophages): inhiber la prolifération des macrophages
inhibition de la prolifération spontanée (macrophages; 10 µg/ml): inhibition de la prolifération spontanée a été observé
inhibition de la réplication virale (VIH (HTLV III Ba-L); 10 à 50 µg/ml, treatment on day -1, day 0 or day +1 relative to infection): inhibe complètement la réplication virale
effets secondaires [1]: dénuées d'effets secondaires
tolérance [1]: très bonne tolérance

CC(=O)N[C@H]1C(O)O[C@H](CO)[C@@H](O)[C@@H]1O[C@H](C)C(=O)N[C@@H](C)C(=O)N[C@H](CCC(=O)O)C(N)=O (stereo partly drawn) [MDP, N-acétyl-muramyl-L-alanyl-D- Isoglutamine]
inhibition de la réplication de HIV (HIV): inhiber partiellement la réplication de HIV
inhibition de la prolifération des macrophages (macrophages de cobayes): inhiber la prolifération des macrophages de cobayes

COC(=O)[C@@H](CCC(N)=O)NC(=O)[C@H](C)NC(=O)[C@@H](C)O[C@H]1[C@H](O)[C@@H](CO)OC(O)[C@@H]1NC(C)=O (stereo partly drawn) [Muramétide, Nac-Mur-L-Ala-DGln OMe]
inhibition de la prolifération des macrophages stimulées par la combinaison IL-3/GM-CSF (macrophages): inhiber la prolifération des macrophages
inhibition de la prolifération des macrophages stimulées par l'IL-3 (macrophages): inhiber la prolifération des macrophages
inhibition de la prolifération spontanée (macrophages; 10 µg/ml): inhibition de la prolifération spontanée a été observé
inhibition de la prolifération spontanée (macrophages; 50 µg/ml): inhibition de la prolifération spontanée a été observé
inhibition at 50 µg/mL (VIH (HTLV III Ba-L); Human immunodeficiency virus 1, BAL, Monocyte, 168 h, 50 µg/ml, whatever the time of treatment (day -1, 0 or +1), read-out: suppression de la réplication virale): 100%
suppression de la réplication virale (VIH (HTLV III Ba-L); different concentrations, treatment day -1, 0 or +1): suppression hautement significative de la réplication virale
effets secondaires [1]: dénuées d'effets secondaires
tolérance [1]: très bonne tolérance
